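Each compound was tested at five concentrations against cells in 96-well plates for 48 hours. Here, GI50 denotes the concentration required for 50% inhibition of growth.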 Active and inactive are the calls of the source. Rule as the data show it: active = GI50 up to about 1.1 µM and inactive = higher.
How the values were obtained:
Assay in all cases: NCI tumour cell line growth inhibition, 48 h
A549 = system: A549
CAKI-1 = system: CAKI-1
CCRF-CEM = system: CCRF-CEM
DLD-1 = system: DLD-1
DMS-114 = system: DMS-114
EKVX = system: EKVX
HCT-116 = system: HCT-116
HCT-15 = system: HCT-15
Hs-578T = system: Hs-578T
KM-20L2 = system: KM-20L2
MDA-MB-435 = system: MDA-MB-435
MOLT-4 = system: MOLT-4
Malme-3M = system: Malme-3M
OVCAR-3 = system: OVCAR-3
SF-295 = system: SF-295
SF-539 = system: SF-539
SK-MEL-5 = system: SK-MEL-5
SNB-75 = system: SNB-75
SR = system: SR
UACC-257 = system: UACC-257

SMILES | GI50 (A549) | GI50 (CAKI-1) | GI50 (CCRF-CEM) | GI50 (DLD-1) | GI50 (DMS-114) | GI50 (EKVX) | GI50 (HCT-116) | GI50 (HCT-15) [µM] | GI50 (Hs-578T) | GI50 (KM-20L2) | GI50 (MDA-MB-435) | GI50 (MOLT-4) | GI50 (Malme-3M) | GI50 (OVCAR-3) | GI50 (SF-295) | GI50 (SF-539) | GI50 (SK-MEL-5) | GI50 (SNB-75) | GI50 (SR) | GI50 (UACC-257)
C/C(=N\NC(=S)N1CCC(N2CCCCC2)CC1)c1ccccn1 | 3.15 µM (inactive) | 2.07 µM (inactive) | 0.661 µM (active) | 39.7 µM (inactive) | 0.522 µM (active) | 3.4 µM (inactive) | 2.79 µM (inactive) | 2.4 | 4.72 µM (inactive) | 4.46 µM (inactive) | 2.4 µM (inactive) | 0.586 µM (active) | > 100 µM (inactive) | 2.4 µM (inactive) | 2.28 µM (inactive) | 3.11 µM (inactive) | 2.66 µM (inactive) | 2.87 µM (inactive) | 0.519 µM (active) | 2.9 µM (inactive)
CP1(=O)CCCCC1 | > 100 µM (inactive) | > 100 µM (inactive) | > 100 µM (inactive) | > 100 µM (inactive) | > 100 µM (inactive) | > 100 µM (inactive) | > 100 µM (inactive) | > 100 | – | > 100 µM (inactive) | – | > 100 µM (inactive) | > 100 µM (inactive) | > 100 µM (inactive) | > 100 µM (inactive) | > 100 µM (inactive) | > 100 µM (inactive) | > 100 µM (inactive) | > 100 µM (inactive) | > 100 µM (inactive)
Cc1ccc(CCNC(=S)SCC(NC(=O)CCC(N)C(=O)O)C(=O)NCC(=O)O)cc1 (stereo not drawn) | 3.57 µM (inactive) | 1.41 µM (inactive) | 0.442 µM (active) | 0.764 µM (active) | 0.873 µM (active) | 6.19 µM (inactive) | 2.17 µM (inactive) | 1.43 | – | 2.12 µM (inactive) | – | 1.23 µM (inactive) | 2.01 µM (inactive) | 2.17 µM (inactive) | 2.81 µM (inactive) | 1.48 µM (inactive) | 1.73 µM (inactive) | 0.435 µM (active) | 2.13 µM (inactive) | 1.99 µM (inactive)
COC(=O)/C(=C\c1ccc(N(CCC#N)CCC#N)cc1)NC(=O)c1cc([N+](=O)[O-])ccc1Cl | > 100 µM (inactive) | > 100 µM (inactive) | > 100 µM (inactive) | > 100 µM (inactive) | > 100 µM (inactive) | > 100 µM (inactive) | > 100 µM (inactive) | > 100 | – | > 100 µM (inactive) | – | > 100 µM (inactive) | > 100 µM (inactive) | > 100 µM (inactive) | > 100 µM (inactive) | > 100 µM (inactive) | > 100 µM (inactive) | > 100 µM (inactive) | 30.5 µM (inactive) | > 100 µM (inactive)
Cc1cc(N(CCC#N)CCC#N)ccc1/C=C(/NC(=O)/C=C/c1ccccc1)C(N)=O | > 100 µM (inactive) | > 100 µM (inactive) | > 100 µM (inactive) | > 100 µM (inactive) | > 100 µM (inactive) | > 100 µM (inactive) | > 100 µM (inactive) | > 100 | – | > 100 µM (inactive) | – | > 100 µM (inactive) | > 100 µM (inactive) | > 100 µM (inactive) | > 100 µM (inactive) | > 100 µM (inactive) | > 100 µM (inactive) | > 100 µM (inactive) | – | > 100 µM (inactive)
OCC(O)C(O)C(O)c1nn(-c2ccccc2)c2nc3cc(Cl)c(Cl)cc3nc12 (stereo not drawn) | 26.7 µM (inactive) | 20 µM (inactive) | 40.5 µM (inactive) | 30.1 µM (inactive) | 31.6 µM (inactive) | 51.6 µM (inactive) | 54.5 µM (inactive) | – | – | 37.2 µM (inactive) | – | 24.5 µM (inactive) | 19.3 µM (inactive) | 40.3 µM (inactive) | 56.5 µM (inactive) | 18.6 µM (inactive) | – | 20.3 µM (inactive) | 33.9 µM (inactive) | 63.1 µM (inactive)
CC(=O)OC1C2CCC1C1C2C2(Cl)C(Cl)=C(Cl)C1(Cl)C2(Cl)Cl (stereo not drawn) | 10.5 µM (inactive) | 13.8 µM (inactive) | – | 15.1 µM (inactive) | 12.6 µM (inactive) | 11.3 µM (inactive) | 11.2 µM (inactive) | – | – | 10.1 µM (inactive) | – | 11 µM (inactive) | 12.6 µM (inactive) | 11.4 µM (inactive) | 11.3 µM (inactive) | 16.6 µM (inactive) | 13 µM (inactive) | 14.7 µM (inactive) | 9.95 µM (inactive) | 13.2 µM (inactive)
CCCCCCNC(=O)CCN(C(=O)O)S(=O)(=O)c1ccc(NC(=O)c2ccccc2)cc1 | > 45.7 µM (inactive) | > 100 µM (inactive) | 22.3 µM (inactive) | 19.1 µM (inactive) | 20.4 µM (inactive) | > 100 µM (inactive) | 39 µM (inactive) | 22 | – | > 100 µM (inactive) | – | > 42.9 µM (inactive) | > 100 µM (inactive) | > 100 µM (inactive) | > 100 µM (inactive) | 17.9 µM (inactive) | > 100 µM (inactive) | > 100 µM (inactive) | 19.3 µM (inactive) | > 48.9 µM (inactive)
COCOCCC#CCO | > 100 µM (inactive) | – | > 100 µM (inactive) | > 100 µM (inactive) | > 100 µM (inactive) | > 100 µM (inactive) | 88.9 µM (inactive) | > 100 | – | > 100 µM (inactive) | – | > 100 µM (inactive) | > 100 µM (inactive) | > 100 µM (inactive) | > 100 µM (inactive) | > 100 µM (inactive) | 72.8 µM (inactive) | > 100 µM (inactive) | 83.8 µM (inactive) | > 100 µM (inactive)
C1CN2CCN3CCN4CCN1[PH]243 | > 100 µM (inactive) | – | > 100 µM (inactive) | > 100 µM (inactive) | > 100 µM (inactive) | > 100 µM (inactive) | > 100 µM (inactive) | > 100 | – | > 100 µM (inactive) | – | > 100 µM (inactive) | > 100 µM (inactive) | > 100 µM (inactive) | > 100 µM (inactive) | > 100 µM (inactive) | > 100 µM (inactive) | > 100 µM (inactive) | > 100 µM (inactive) | > 100 µM (inactive)
O=C1C2C3C=CC(C2C(=O)N1CN1CCSCC1)C1C2C(=O)N(CN4CCSCC4)C(=O)C2C31 (stereo not drawn) | 62.1 µM (inactive) | > 100 µM (inactive) | 45.9 µM (inactive) | > 51.4 µM (inactive) | 38.8 µM (inactive) | > 100 µM (inactive) | > 41.2 µM (inactive) | 34.8 | – | > 76.2 µM (inactive) | – | > 78.5 µM (inactive) | > 100 µM (inactive) | > 100 µM (inactive) | > 100 µM (inactive) | > 100 µM (inactive) | > 100 µM (inactive) | 45.3 µM (inactive) | 39.7 µM (inactive) | > 100 µM (inactive)
CN(C)CCCNC(=O)c1cccc2nc3ccccc3nc12 | 12.2 µM (inactive) | > 36.1 µM (inactive) | – | > 41.6 µM (inactive) | 12.3 µM (inactive) | 27.3 µM (inactive) | 4.83 µM (inactive) | 15.2 | – | 25.1 µM (inactive) | – | 9.77 µM (inactive) | 4.42 µM (inactive) | 19.4 µM (inactive) | 19.5 µM (inactive) | 16.3 µM (inactive) | > 54 µM (inactive) | 35.8 µM (inactive) | 4.57 µM (inactive) | 13.2 µM (inactive)
CC1=NN(C(=O)Nc2ccc(Cl)cc2)C(=O)C2CCC(=O)N12 (stereo not drawn) | 49.3 µM (inactive) | 60.3 µM (inactive) | > 100 µM (inactive) | > 100 µM (inactive) | > 100 µM (inactive) | > 100 µM (inactive) | > 100 µM (inactive) | 1.76 | – | 4.38 µM (inactive) | – | 53 µM (inactive) | – | > 100 µM (inactive) | 48.3 µM (inactive) | > 100 µM (inactive) | 87.3 µM (inactive) | > 100 µM (inactive) | > 100 µM (inactive) | 49.3 µM (inactive)
CCOC(=O)COS(=O)(=O)C(F)(F)F | > 100 µM (inactive) | > 100 µM (inactive) | > 100 µM (inactive) | 41.2 µM (inactive) | 17.1 µM (inactive) | > 100 µM (inactive) | 34.5 µM (inactive) | 18.5 | – | > 100 µM (inactive) | – | > 100 µM (inactive) | > 100 µM (inactive) | > 100 µM (inactive) | > 100 µM (inactive) | > 100 µM (inactive) | > 100 µM (inactive) | > 100 µM (inactive) | 24.7 µM (inactive) | > 100 µM (inactive)
CN(C)CC1CC/C(=C\c2ccc(Cl)c(Cl)c2)C1=O (stereo not drawn) | > 100 µM (inactive) | 14.8 µM (inactive) | 2.49 µM (inactive) | 16 µM (inactive) | > 47.8 µM (inactive) | 39.3 µM (inactive) | 24.3 µM (inactive) | 12.7 | – | > 34.5 µM (inactive) | – | 4.76 µM (inactive) | > 62.5 µM (inactive) | 28.3 µM (inactive) | 48.6 µM (inactive) | > 40.5 µM (inactive) | 45.7 µM (inactive) | > 41.7 µM (inactive) | 2.2 µM (inactive) | 24.7 µM (inactive)

Source: ChEMBL document CHEMBL1201862, “PubChem BioAssay data set” (2004)
